Experimental data reported in patent US8765779B2, “Tricyclic derivatives and their pharmaceutical use and compositions” (Cephalon, Inc., priority 2009, dated 2014).
Read-outs that look alike come from different tables or passages of the source.

Biological target: T1, human 5-HT6 receptor (Homo sapiens, UniProt P50406)
T1 construct: host or cells: CHO-K1 cells, stably transfected; membranes prepared in house
Assay: Human 5-HT6 Receptor Binding Assay ([3H]LSD displacement, scintillation beads)
Conditions: membranes of CHO-K1 cells with recombinant human 5-HT6, 4 nM [3H]LSD, read-out: h5-HT6 (Ki)

T1 sequence (P50406 whole entry): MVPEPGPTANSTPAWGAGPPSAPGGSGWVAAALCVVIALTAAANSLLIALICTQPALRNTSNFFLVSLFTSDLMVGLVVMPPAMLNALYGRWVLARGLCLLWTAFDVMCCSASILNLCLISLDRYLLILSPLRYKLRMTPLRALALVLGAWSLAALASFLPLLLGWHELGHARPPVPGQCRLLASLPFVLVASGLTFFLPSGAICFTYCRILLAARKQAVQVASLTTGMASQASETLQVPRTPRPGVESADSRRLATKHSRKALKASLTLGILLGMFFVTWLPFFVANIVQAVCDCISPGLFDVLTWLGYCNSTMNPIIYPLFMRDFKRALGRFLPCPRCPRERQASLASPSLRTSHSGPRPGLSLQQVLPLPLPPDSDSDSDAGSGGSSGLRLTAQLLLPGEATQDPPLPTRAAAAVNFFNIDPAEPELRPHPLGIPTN

Row | Ki (Table 1, class symbols) [µM] | Ki (specific data) [µM] | Compound
1 | < 0.5 | – | O=S(=O)(c1ccc2c(c1)C1CCNCC1O2)N1CCc2ccccc2C1 (stereo not drawn) [Example 856]
2 | > 1 | – | O=S(=O)(Cc1ccc(C(F)(F)F)cc1)Oc1ccc2c(c1)C1CCNCC1O2 (stereo not drawn) [Example 751]
3 | > 1 | – | O=S(=O)(Cc1ccc(F)cc1F)Oc1ccc2c(c1)C1CCNCC1O2 (stereo not drawn) [Example 756]
4 | < 0.5 | – | O=S(=O)(Oc1ccc2c(c1)OC1CNCCC21)c1csc2ccccc12 (stereo not drawn) [Example 665]
5 | 0.5 to 1 | – | O=S(=O)(c1ccccc1)c1ccc2c3c(oc2c1)CN(Cc1ccccc1)CC3 [Example 597]
6 | 0.5 to 1 | – | O=S(=O)(c1ccccc1)c1ccc2c(c1)C1CCNCC1O2 (stereo not drawn) [Example 334, 6-(phenylsulfonyl)-1,2,3,4,4a,9a-hexahydro[1]benzofuro[2,3-c]pyridine]
7 | < 0.5 | – | O=S(=O)(c1ccc2c(c1)OC1CNCCC21)c1cccc(OCC2CCOCC2)c1Cl (stereo not drawn) [Example 485]
8 | > 1 | – | O=S(=O)(Nc1ccc(F)cc1)c1ccc2c(c1)C1CCNCC1O2 (stereo not drawn) [Example 847]
9 | 0.5 to 1 | – | O=S(=O)(c1ccc(-c2ccccc2)cc1)c1ccc2c3c(oc2c1)CNCC3 [Example 228]
10 | < 0.5 | – | CC(C)Oc1cccc(S(=O)(=O)c2ccc3c(c2)OC2CNCCC32)c1F (stereo not drawn) [Example 481]
11 | < 0.5 | – | O=S(=O)(Oc1ccc2c(c1)C1CCNCC1O2)c1cccc(C(F)(F)F)c1 (stereo not drawn) [Example 737]
12 | > 1 | – | COc1ccc(S(=O)(=O)c2ccc3oc4c(c3c2)CCNC4C)cc1F (stereo not drawn) [Example 285]
13 | < 0.5 | – | O=S(=O)(c1cccc(F)c1)c1ccc2c3c(oc2c1)C1(CCOCC1)NCC3 [Example 43, 7-[(3-fluorophenyl)sulfonyl]-2′,3,3′,4,5′,6′-hexahydro-2H-spiro[1-benzofuro[2,3-c]pyridine-1,4′-pyran]]
14 | < 0.5 | – | O=S(=O)(c1ccccc1)c1ccc2c(c1)OC1CNCCC21 (stereo not drawn) [Example 324, 7-(phenylsulfonyl)-1,2,3,4,4a,9a-hexahydro[1]benzofuro[2,3-c]pyridine]
15 | 0.5 to 1 | – | O=S(=O)(c1ccc(C(F)(F)F)cc1)c1ccc2c(c1)OC1CNCCC21 (stereo not drawn) [Example 151]
16 | < 0.5 | – | COc1cccc(S(=O)(=O)Oc2ccc3c(c2)OC2CNCCC32)c1 (stereo not drawn) [Example 651]
17 | < 0.5 | – | Cc1cccc(S(=O)(=O)c2ccc3c4c(oc3c2)CNCC4)c1 [Example 221]
18 | < 0.5 | – | CC1NCCc2c1oc1cc(S(=O)(=O)c3ccccc3)ccc21 (stereo not drawn) [Example 235]
19 | < 0.5 | – | O=S(=O)(c1ccc2oc3c(c2c1)CCNC3)c1ccccn1 [Example 353]
20 | < 0.5 | – | CC1(C)CNC(C2CCOCC2)c2oc3cc(S(=O)(=O)c4cccc(F)c4)ccc3c21 (racemic) [Example 45, 7-[(3-fluorophenyl)sulfonyl]-4,4-dimethyl-1-(tetrahydro-2H-pyran-4-yl)-1,2,3,4-tetrahydro[1]benzofuro[2,3-c]pyridine]
21 | < 0.5 | – | O=S(=O)(Nc1ccc2c(c1)C1CCNCC1O2)c1cccc(Cl)c1Cl (stereo not drawn) [Example 829]

Row | Ki (Table 1, class symbols) [µM] | Ki (specific data) [µM] | Compound
22 | < 0.5 | – | O=S(=O)(c1ccc2oc3c(c2c1)CCNC3)c1cc(Cl)ccc1Cl [Example 266, 6-[(2,5-dichlorophenyl)sulfonyl]-1,2,3,4-tetrahydro[1]benzofuro[2,3-c]pyridine]
23 | < 0.5 | – | O=S(=O)(c1cc(F)cc(F)c1)c1ccc2c(c1)OC1CNCCC21 (stereo not drawn) [Example 158]
24 | < 0.5 | – | O=S(=O)(Oc1ccc2c(c1)C1CCNCC1O2)c1c(Cl)cccc1Cl (stereo not drawn) [Example 741]
25 | < 0.5 | – | CC(C)COc1cc(F)cc(S(=O)(=O)c2ccc3c(c2)OC2CNCCC32)c1 (stereo not drawn) [Example 414]
26 | < 0.5 | – | O=S(=O)(c1ccc2c(c1)OC1CNCCC21)c1cccc(Cl)c1Cl (stereo not drawn) [Example 156]
27 | < 0.5 | – | O=S(=O)(Oc1ccc2c(c1)OC1CNCCC21)c1ccc2ccccc2c1 (stereo not drawn) [Example 661]
28 | < 0.5 | – | O=S(=O)(Oc1ccc2c(c1)OC1CNCCC21)c1cccc2cccnc12 (stereo not drawn) [Example 662]
29 | > 1 | – | O=S(=O)(Oc1ccc2c(c1)C1CCNCC1O2)c1ccccc1C(F)(F)F (stereo not drawn) [Example 736]
30 | < 0.5 | – | CC(C)C(=O)NCC1(C)NCCc2c1oc1cc(S(=O)(=O)c3cccc(F)c3)ccc21 (stereo not drawn) [Example 491, N-[7-(3-Fluoro-benzenesulfonyl)-1-methyl-1,2,3,4-tetrahydro-benzofuro[2,3-c]pyridin-1-ylmethyl]-isobutyramide]
31 | > 1 | – | O=S(=O)(Oc1ccc2c(c1)OC1CN(C3CCCC3)CCC21)c1ccc(Cl)cc1 (stereo not drawn) [Example 801]
32 | < 0.5 | – | CC1NCCc2c1oc1cc(S(=O)(=O)c3ccc(F)c(F)c3)ccc21 (stereo not drawn) [Example 238]
33 | < 0.5 | – | O=S(=O)(c1ccc2c(c1)C1CCNCC1O2)c1cccc(Cl)c1Cl (stereo not drawn) [Example 176]
34 | < 0.5 | – | CC(=O)NCC1NCCc2c1oc1cc(S(=O)(=O)c3cccc(Cl)c3)ccc21 (racemic) [Example 539, N-({7-[(3-chlorophenyl)sulfonyl]-1,2,3,4-tetrahydro[1]benzofuro[2,3-c]pyridin-1-yl}methyl)acetamide]
35 | < 0.5 | 0.472 | Cc1ccc(C)c(S(=O)(=O)Nc2ccc3c(c2)C2CCNCC2O3)c1 (stereo not drawn) [Example 820, N-(1,2,3,4,4a,9a-hexahydro[1]benzofuro[2,3-c]pyridin-6-yl)-2,5-dimethylbenzenesulfonamide]
36 | > 1 | – | COc1ccc(S(=O)(=O)c2ccc3c(c2)OC2CNCCC32)cc1 (stereo not drawn) [Example 323]
37 | < 0.5 | – | O=S(=O)(c1ccc2c3c(oc2c1)CNCC3)c1cccc(Cl)c1Cl [Example 196, 7-[(2,3-dichlorophenyl)sulfonyl]-1,2,3,4-tetrahydro[1]benzofuro[2,3-c]pyridine]
38 | < 0.5 | – | O=S(=O)(c1ccccc1)c1ccc2c3c(oc2c1)CN(CC(F)(F)F)CC3 [Example 598]
39 | > 1 | – | COc1cc(S(=O)(=O)c2ccc3c4c(oc3c2)C2(CCOC2)NCC4(C)C)c[n+]([O-])c1 (stereo not drawn) [Example 453]
40 | < 0.5 | – | O=S(=O)(c1ccccc1)c1ccc2oc3c(c2c1)CCNC3 [Example 348]
41 | > 1 | – | [O-][S+](c1ccc2c(c1)OC1CNCCC21)c1c(F)c(F)cc(F)c1F (stereo not drawn) [Example 144]
42 | > 1 | – | CC1(C)NCCc2c1oc1cc(S(=O)(=O)c3ccc(N4CCCC4)nc3)ccc21 [Example 380]

Row | Ki (Table 1, class symbols) [µM] | Ki (specific data) [µM] | Compound
43 | < 0.5 | – | CC1NCCc2c1oc1ccc(S(=O)(=O)c3ccc(F)c(F)c3)cc21 (stereo not drawn) [Example 284]
44 | < 0.5 | – | O=S(=O)(Oc1ccc2c(c1)OC1CNCCC21)c1ccc(OC(F)(F)F)cc1 (stereo not drawn) [Example 682]
45 | > 1 | – | O=S(=O)(Nc1ccccc1F)c1ccc2c(c1)C1CCNCC1O2 (stereo not drawn) [Example 839]
46 | < 0.5 | – | CC1NCCc2c1oc1cc(S(=O)(=O)c3cccc(C(F)(F)F)c3)ccc21 (stereo not drawn) [Example 237]
47 | < 0.5 | – | O=S(=O)(Nc1ccc2c(c1)C1CCNCC1O2)c1ccc(Cl)cc1 (stereo not drawn) [Example 823]
48 | < 0.5 | – | O=S(=O)(c1ccc(Cl)c(Cl)c1)c1ccc2c(c1)OC1CNCCC21 (stereo not drawn) [Example 120]
49 | > 1 | – | O=S(=O)(c1ccc2c(c1)OC1CNCCC21)C1CCCCC1 (stereo not drawn) [Example 154]
50 | < 0.5 | – | CCCCC1NCCc2c1oc1cc(S(=O)(=O)c3cccc(F)c3)ccc21 (stereo not drawn) [Example 506]
51 | < 0.5 | – | CC(C)Oc1cc(F)cc(S(=O)(=O)c2ccc3c(c2)OC2CNCCC32)c1 (stereo not drawn) [Example 417]
52 | < 0.5 | – | COc1cccc(S(=O)(=O)c2cccc3c2OC2CNCCC32)c1 (stereo not drawn) [Example 182]
53 | > 1 | – | CC(=O)N1CCC2c3cc(NS(=O)(=O)c4cc(C)ccc4C)ccc3OC2C1 (stereo not drawn) [Example 815]
54 | 0.5 to 1 | – | N#Cc1ccccc1COc1cccc(S(=O)(=O)c2ccc3c(c2)OC2CNCCC32)c1 (stereo not drawn) [Example 550]
55 | < 0.5 | – | COCC1(C)NCCc2c1oc1cc(S(=O)(=O)c3cccc(F)c3)ccc21 (racemic) [Example 49, 7-[(3-fluorophenyl)sulfonyl]-1-(methoxymethyl)-1-methyl-1,2,3,4-tetrahydro[1]benzofuro[2,3-c]pyridine]
56 | < 0.5 | – | O=S(=O)(c1ccc2c3c(oc2c1)CNCC3)c1cc(Cl)ccc1Cl [Example 215, 7-[(2,5-dichlorophenyl)sulfonyl]-1,2,3,4-tetrahydro[1]benzofuro[2,3-c]pyridine]
57 | < 0.5 | – | CC(=O)NCC1(C)NCCc2c1oc1cc(S(=O)(=O)c3cccc(F)c3)ccc21 (stereo not drawn) [Example 632, N-({7-[(3-fluorophenyl)sulfonyl]-1-methyl-1,2,3,4-tetrahydro[1]benzofuro[2,3-c]pyridin-1-yl}methyl)acetamide]
58 | > 1 | – | O=S(=O)(Nc1cc(Cl)cc(Cl)c1)c1ccc2c(c1)C1CCNCC1O2 (stereo not drawn) [Example 843]
59 | > 1 | – | O=S(=O)(Oc1ccc2c(c1)OC1CN(C3CCC3)CCC21)c1ccc(Cl)cc1 (stereo not drawn) [Example 800]
60 | < 0.5 | – | O=S(=O)(c1ccc2c(c1)OCCO2)c1cccc2c1OC1CNCCC21 (stereo not drawn) [Example 185]
61 | > 1 | – | O=S(=O)(c1ccc2c(c1)OCCO2)c1ccc2c(c1)C1CCNCC1O2 (stereo not drawn) [Example 180]
62 | < 0.5 | – | COc1ccc(S(=O)(=O)c2ccc3oc4c(c3c2)CCNC4)cc1F [Example 241]
63 | < 0.5 | – | [O-][S+](c1ccc2c3c(oc2c1)CNCC3)c1cc(F)ccc1F (stereo not drawn) [Example 222]

Row | Compound | Ki (Table 1, class symbols) [µM] | Ki (specific data) [µM]
64 | CC(C)Oc1cccc(S(=O)(=O)c2ccc3c(c2)OC2CNCCC32C)c1 (single isomer, unassigned) [Example 20, 4a-methyl-7-{[3-(propan-2-yloxy)phenyl]sulfonyl}-1,2,3,4,4a,9a-hexahydro[1]benzofuro[2,3-c]pyridine] | < 0.5 | –
65 | Cc1c(Cl)cccc1S(=O)(=O)Oc1ccc2c(c1)C1(C)CCNCC1O2 (stereo not drawn) [Example 767] | > 1 | –
66 | CC12CCNCC1Oc1ccc(OS(=O)(=O)c3ccccc3C(F)(F)F)cc12 (stereo not drawn) [Example 779] | > 1 | –
67 | Cc1noc(C)c1S(=O)(=O)Oc1ccc2c(c1)OC1CNCCC21 (stereo not drawn) [Example 646] | 0.5 to 1 | –
68 | CC12CCNCC1Oc1ccc(OS(=O)(=O)c3cccc4cccnc34)cc12 (stereo not drawn) [Example 770] | > 1 | –
69 | CC12CCNCC1Oc1ccc(OS(=O)(=O)CCc3ccccc3)cc12 (stereo not drawn) [Example 785] | > 1 | –
70 | CC12CCNCC1Oc1ccc(OS(=O)(=O)Cc3cccc(Cl)c3)cc12 (stereo not drawn) [Example 791] | < 0.5 | –
71 | COc1cc(OC)cc(S(=O)(=O)c2ccc3c(c2)OC2CNCCC32C)c1 (stereo not drawn) [Example 489] | < 0.5 | –
